From patent publication US20150073055A1, “USE OF MODAFINIL IN THE TREATMENT OF COCAINE ADDICTS” (DEBREGEAS ET ASSOCIES PHARMA, priority 2012, published 2015)

Legend:
[1] = cited from earlier work
[2] = estimated; absolute bioavailability was not able to be determined; cited from earlier work
[3] = crystalline white powder, cited from earlier work
[4] = Solubility in supercritical CO2 or another supercritical solvent; assay type: physicochemical
Procedure: A method for a novel formulation being the object of the present invention, uses the technology of supercritical CO2 based on the solvent power of CO2 which may be modulated at will according to the pressure and temperature conditions which are applied to it. In the supercritical state (more than 74 bars and 31° C.), CO2 has very particular properties. The obtained fluid is characterized by great diffusivity (of the order of that of gases), which gives it good diffusion capability, and a high density which provides it with significant transport and extraction capability.
A supercritical fluid has another advantage over other solvents: its solubility changes depending on whether its temperature or its pressure is varied. Thus it is possible to ensure that it is a solvent for certain substances at a given instant, and no longer for one at the following instant. This facilitates recovery of the substance which was dissolved.
The following step consists of spraying the dissolved active ingredient on an inert support, and then of studying the grain size of the obtained particles as well as the crystalline form of the same particles.
Different parameters were then modified: • changing the inert support (anhydrous lactose replaced with mannitol), • increasing the loading level up to 30% of active ingredient load, • using S modafinil, • a supercritical solvent other than CO2 . […]

NC(=O)C[S+]([O-])C(c1ccccc1)c1ccccc1 (racemic) [Modafinil, 2-[(diphenylmethyl)sulfinyl]acetamide]
elimination half-life ([1]; in humans): about 14 hours | bioavailability [2]: about 40% | solubility in acetone ([3]; acetone): partly soluble | solubility in methanol ([3]; methanol): partly soluble | solubility in water ([3]; water): practically insoluble | solubility in CO2 [4]: acceptable solubility

NC(=O)C[S@@+]([O-])C(c1ccccc1)c1ccccc1 (single isomer, unassigned) [enantiomer R]
AUC (area under the curve) compared with the racemic form ([1]; after administration): greater AUC (area under the curve) than the racemic form | variability of plasma levels compared with the racemic form ([1]; after administration): less variability of plasma levels
